Row | SMILES | melting point [°C]
1 | COc1ccc(C2=NN(C(C)CCC(=O)Nc3ccc(C4=NNC(=O)CC4C)cc3)C(=O)C3CC=CCC23)cc1OC (stereo not given) | 154 to 157
2 | N#Cc1cc(-c2ccoc2)c2ccc(COc3cc(F)cc(-c4cc(F)cc(F)c4)c3)cc2n1 | 189 to 192
3 | CCOC(=O)c1ccc(NCCCc2ccccc2)cc1 | 80 to 83
4 | CCCN(CCC)C(=O)Cc1c(-c2ccccc2)nn2cccnc12 | 103 to 105
5 | CN(C)S(=O)(=O)c1cccc(-c2cc(-c3nc(-c4ccc(C(F)(F)F)cc4)cc(C(F)(F)F)n3)ccn2)c1 | 225
6 | CCOC(=O)C(=CNC1CC1)C(=O)c1c(C)c(F)c(F)c(F)c1F | 72 to 74
7 | CC(=O)N1CCN=C1c1c(Cl)nc(N)nc1Cl | 221
8 | CCOC(=O)c1cnc2c3ccccc3c(OC)cn2c1=O | 190 to 193
9 | CCOC(=O)CCc1ccc(OC)c(OCc2ccccc2)c1 | 49.5 to 50.5
10 | CS(=O)(=O)Nc1ccc(Cl)c([N+](=O)[O-])c1 | 163
11 | CCOC(=O)Cn1c(-c2ccccn2)nc2cccnc21 | 109 to 111
12 | CCCn1nc(C(C)C)c(C(=O)OCc2ccccc2C(=O)c2ccccc2)c1Cc1ccc(-c2ccccc2S(=O)(=O)NC(=O)OCC(C)C)c(F)c1 | 52 to 59
13 | CCC(Cc1ccccc1)(C(=O)c1ccc(N(C)C)cc1)N(C)C (stereo not given) | 77 to 80
14 | CC(C)(C)OC(=O)CCc1cccc(-c2nc(=O)c3ccc(C(F)(F)F)cc3s2)n1 | 148 to 149
15 | CC(C)n1nc(-c2sc(N)nc2-c2ccccc2F)ccc1=O | 233 to 235
16 | COc1ccc(N2CCN(c3c(C)c(C)c4c(c3C)CC(C)(C)O4)CC2)cc1OC | 135 to 137
17 | Cc1[nH]c2ccccc2c1C(=O)NC1CCN(Cc2ccccc2)CC1 | 150 to 153
18 | O=C1[C@H](O)[C@@H](O)C(=O)N1Cc1ccccc1 | 100
19 | N#CC(Cl)Cc1ccc([N+](=O)[O-])cc1 (stereo not given) | 112
20 | COc1ccc(N2CCN(c3cc4c(cc3-c3ccc(C)cc3)OC(C)(C)C4)CC2)cc1 | 187 to 190
21 | Nc1cccc(C(=O)N(CCN2CCC(C(=O)c3ccc(F)cc3)CC2)c2ccc(F)cc2)c1 | 159 to 162
22 | CCOC(=O)c1nn(-c2ccccc2)c2c1CSc1ccccc1-2 | 139 to 141
23 | CN(C)CC1CNc2ccccc2C1 (stereo not given) | 85 to 89
24 | COc1ccc(N2CCOCC2)c2sc(-c3nc4c([nH]3)CCN(C(C)=O)C4)nc12 | 155 to 157
25 | CN1CCC(C(C(=O)N2CCCC2)(c2ccccc2)c2ccccc2)C1 (stereo not given) | 137 to 140

Row | SMILES | melting point [°C]
26 | O=C(Nc1ccc(-n2nc(C(F)(F)F)cc2OC(F)F)cc1)c1ccncc1F | 135 to 136
27 | COc1ccc(-c2nc(C(O)(C(F)(F)F)C(F)(F)F)[nH]c2-c2ccc(OC)cc2)cc1 | 144 to 146
28 | CNC(=O)c1ccc(Cl)cc1 | 158 to 161
29 | CCc1nc2c(cnn2CC)c(NC2CCOCC2)c1CNC(=O)c1cccc(C(=O)NCc2ccc(OC)c(-c3cccc(C=O)c3)c2)c1 | 118 to 121
30 | O=S(=O)(c1ccc(N2CCNCC2)cc1)n1ccc2cc(F)ccc21 | 77 to 78
31 | N#Cc1ccc(NC(=S)NCc2ccccn2)cc1 | 144
32 | CC(C)c1c(C=O)c(-c2ccc(F)cc2)n2c1CCCC2 | 100 to 101
33 | CC(=O)NNc1nc(O)nc(-c2ccc(Cl)cc2)n1 | 250
34 | Cc1c(-c2cccnc2)n(CCCCCCCC(=O)O)c2ccccc12 | 110 to 113
35 | Oc1cc2ccccc2c(Br)c1O | 98 to 102
36 | CCCc1c(SCCCOc2ccc(C(C)=O)c(OCCCC(=O)OCC)c2CCC)ccc(C(C)=O)c1O | 65 to 66
37 | COC(=O)C1=C(C)NC(C)=C(C(=O)OCCCOc2ccc(CCOC3CCCCO3)cc2)C1c1cccc([N+](=O)[O-])c1 (stereo not given) | < 50
38 | CC(O)(CCN)c1ccc(-c2ccc(F)cc2)cc1 (stereo not given) | 144 to 146
39 | COc1c(Cl)cc(C(=O)Nc2ccc(F)cc2)c(Nc2ccccc2)c1Cl | 220
40 | O=C(CCC1OC=CO1)c1ccc2c(c1)OCO2 | 94 to 96
41 | Nc1ccc(S(=O)(=O)Nc2nc(-c3cccc([N+](=O)[O-])c3)cs2)cc1 | 191 to 193
42 | CCCCON=C(C(=O)OCC)c1csc(N)n1 | 126 to 128
43 | CCOc1ccc(NC(=O)c2cnc3c(N)cccc3c2)cc1 | 187 to 189
44 | Cc1ccc2nc3ccc(=O)c(Cl)c-3sc2c1 | 218
45 | O=C(NNc1ccc([N+](=O)[O-])cc1)c1ccc(Cl)cc1 | 246 to 248
46 | CCOC(=O)c1ncc2[nH]c3cccc(Oc4ccc(Cl)cc4)c3c2c1COC | 207
47 | CC1COc2c(N3CCC(NC(=O)OC(C)(C)C)C3)c(F)cc3c(=O)n(N)c(=O)n1c23 (stereo not given) | 114 to 116
48 | CNN(NC)C(=O)Sc1cc(C)ccc1C(=O)OC | 79.4 to 80
49 | COc1cc(O)nc(C(C)(C)C)n1 | 175
50 | c1ccc(N(c2ccccc2)c2ccc(-c3ccc(-c4ccnc(C5Cc6ccccc6N5)n4)cc3)cc2)cc1 (stereo not given) | 247 to 248

Row | SMILES | melting point [°C]
51 | COc1cc2ncc(C#N)c(Nc3ccc4[nH]c(C)nc4c3)c2cc1OC | 207
52 | O=C(O)C1CCc2c(c3cccc(Br)c3n2C(=O)c2ccccc2)C1 (stereo not given) | 196 to 198
53 | CC=COCCC[C@H]1CC[C@H](c2cccc(F)c2F)CC1 | 35.5 to 36.9
54 | CC(CCCCCOCCc1ccccc1)NCC(O)c1ccc2c(n1)COC(c1ccccc1)O2 (stereo not given) | 61 to 67
55 | CC(C)c1cc2n(CCc3ccccc3)cc(C(=O)O)c(=O)n2n1 | 220 to 225
56 | Cn1nc(-c2ccc([N+](=O)[O-])cc2)c2ccccc2c1=O | 200 to 202
57 | Oc1ccc(-c2n[nH]c3ncnc(Nc4cccc(Cl)c4)c23)cc1 | > 220
58 | Cc1ccc(S(=O)(=O)n2cc(CCN(Cc3ccccc3)Cc3ccccc3)c3ccccc32)cc1 | 116 to 118
59 | Cc1nc(SCC(N)=O)nc(C)c1Br | 175 to 177
60 | O=C(CCc1cnoc1-c1ccc(Cl)cc1)Nc1cccnc1 | 197 to 198
61 | CC(c1ccncn1)C(O)(Cn1cncn1)c1ccc(F)cc1F (stereo not given) | 114 to 116
62 | CCOC(=O)c1cn(CC)c2cc(N3CCN(C)CC3)c(F)cc2c1=O | 176 to 179
63 | CCOC=C(C(=O)O)C(=O)C1CC1 | 108 to 113
64 | C#CCOc1cc(Cl)cc(Cl)c1OCC#C | 61 to 63
65 | O=P(O)(O)OC(Cn1cncn1)C(c1ccc(F)cc1F)n1cncn1 (stereo not given) | 93
66 | C#Cc1ccnc(-c2cc([N+](=O)[O-])c(-c3cc(C#C)ccn3)cc2N)c1 | 154 to 160
67 | C#CCOc1ccc2c(c1)c(-c1ccc(C3CC3)cc1)nc(=O)n2Cc1ccccc1 | 112 to 113
68 | CCCCCCCCCCCCCCCCSCC(CN=[N+]=[N-])NC(=O)OC(C)(C)C (stereo not given) | 63 to 64
69 | CCOC(=O)Cn1c(-c2ccc(Cl)c(Cl)c2)nc2cccnc21 | 141 to 142
70 | CC1(N2C(=O)c3cccc(NCc4ccco4)c3C2=O)CCC(=O)NC1=O (stereo not given) | 158 to 160
71 | COc1ccc(CCN)cc1OCCC(c1ccccc1)(c1ccccc1)c1ccccc1 | 111 to 112
72 | COc1ccc(S(=O)(=O)N(Cc2cccnc2)c2c(C(=O)O)cc(C)cc2-c2cccs2)cc1 | 67
73 | CC(C)(C)c1nc(C=C2SC(=S)N(N)C2=O)nc(C(C)(C)C)c1O | 194 to 196
74 | Cc1ccc(Cl)c2c1[nH]c1c(C(=O)O)cccc12 | 303
75 | COC(=O)c1sc(C(=O)OC)c([N+](=O)[O-])c1OC | 80 to 82

Row | SMILES | melting point [°C]
76 | CSc1nc(C)c(Cc2ccc(Cl)cc2)c(=O)[nH]1 | 248 to 251
77 | CCC(O/N=C(\C(=O)O)c1csc(N)n1)C(=O)OC(C)(C)C (stereo not given) | 122 to 124
78 | O=c1c2ccccc2nc(-c2sc(Nc3ccccc3)nc2-c2ccccc2)n1-c1ccccc1Cl | 210 to 212
79 | O=C1CC(CI)C(=O)N1c1ccc(F)cc1 (stereo not given) | 156
80 | NC1=Nc2ccc(OC(F)(F)F)cc2SC1 | 94 to 96
81 | CON=C(C(=O)OC)c1cccc(OC)c1 | 66 to 68
82 | CCOC(=O)c1cnc2c(c(C)nn2-c2ccccn2)c1Cl | 121 to 123
83 | CCOC(=O)COc1ccc2cc(-c3cc4ccccc4o3)ccc2c1Cl | 140 to 142
84 | Cc1cc(OCc2ccccc2)c(C)cc1C=O | 48 to 49
85 | COc1ccc(C2=NNC(N)(C3CCN(Cc4ccccc4)CC3)c3cc(OC)ccc32)cc1 (stereo not given) | 150
86 | Cn1ccc2cc(NC(=O)Nc3cncnc3)ccc21 | 210 to 213
87 | CCOC(=O)C1=C(C)NC(=S)N(C(=O)OCC)C1c1ccccc1Cl (stereo not given) | 126 to 128
88 | CC(=O)OC1CSC(Oc2cncc(-c3ccc(N4CCCCC4)cc3)c2)C(OC(C)=O)C1OC(C)=O (stereo not given) | 196
89 | Nc1c(F)c(-c2ccc(Cl)cc2)nc(C=O)c1Cl | 166 to 169
90 | O=Cc1ccc(OCCCN2C(=O)c3ccccc3C2=O)cc1 | 120 to 121
91 | COc1cccc(-c2nc(Cl)nc(Cl)n2)c1 | 114
92 | COc1cc(Sc2ccncc2)ccc1[N+](=O)[O-] | 97 to 100
93 | Cc1c(SCCCCSCCn2c([N+](=O)[O-])cnc2C)ccnc1CSc1nc2ccccc2[nH]1 | 160 to 162
94 | CN(C)Cc1c(-c2ccc(OC(F)F)c(OC3CC3)c2)[nH]c2cn[nH]c(=O)c12 | 154 to 157
95 | O=C(CCOc1cccc(CN2CCCCC2)c1)Nc1cccnc1 | 92 to 96
96 | CNc1ccc(C#CCCN2CC=C(c3ccccc3)CC2)nc1 | 164 to 166
97 | O=C1c2cnc(N3CCN(Cc4ccccc4)CC3)nc2CN1C1CCCCC1 | 176 to 178
98 | COc1ccccc1N1CCN(C(=O)Cc2ccccc2Br)CC1 | 95 to 97
99 | COc1ccc2c(c1)CCC1CCNC(=O)C(CC(=O)NC(C)C)=C21 (stereo not given) | 213 to 216
100 | O=C(O)Cc1cccc2c1NC(=O)C2 | 234 to 236

From a melting point compilation (Tetko et al.; mined from patent text by program, amines drawn as free bases though some values may be those of a salt)
